Read-outs that look alike come from different tables or passages of the source.
Tests used:
[1] = Example 4: NFA of saxagliptin in saxagliptin/Opadry II films with amine compounds (HPLC); assay type: physicochemical; details: amine 2% w/w in dispersion, sealed vials 60° C. five days, control without amine 2.63
[2] = assay type: physicochemical; details: Saxagliptin Hydrochloride/Opadry II films, amine 2% w/w in dispersion, 60° C. five days; control without amine 2.73
[3] = Example 6: NFA of saxagliptin in saxagliptin/Opadry II films with amino acids (HPLC); assay type: physicochemical; details: for % NFA (as a % of saxagliptin peak): Saxagliptin/Opadry II films, amino acid 2% w/w in dispersion, sealed vials 60° C. five days, control without amine 2.63
[4] = Saxagliptin Hydrochloride/Opadry II films, amino acid 2% w/w in dispersion, 60° C. five days; control without amine 2.73

OCCNCCO [Diethanolamine, diethanolamine]
% NFA (as a % of saxagliptin peak) [1]: 3.61%
% NFA (as a % of saxagliptin peak) [2]: 0.62%

NCCCC[C@H](N)C(=O)O [Lysine, lysine]
% NFA (as a % of saxagliptin peak) [3]: 2.84%
% NFA (as a % of saxagliptin peak) [4]: 2.08%

NCC(=O)O [Glycine, glycine]
% NFA (as a % of saxagliptin peak) [3]: 0%
protecting saxagliptin from reaction with formyl species (rank among amino acids) ([3]; saxagliptin and saxagliptin hydrochloride Opadry II films): most potent
% NFA (as a % of saxagliptin peak) [4]: 0%

NCCO [Ethanolamine, ethanolamine]
% NFA (as a % of saxagliptin peak) [1]: 0%
% NFA (as a % of saxagliptin peak) [2]: 0%

N[C@@H](Cc1c[nH]cn1)C(=O)O [Histidine, histidine]
% NFA (as a % of saxagliptin peak) [3]: 1.68%

N=C(N)NCCC[C@H](N)C(=O)O [Arginine, arginine]
% NFA (as a % of saxagliptin peak) [3]: 0%
extraneous peaks in the chromatogram ([3]; saxagliptin and saxagliptin hydrochloride Opadry II films, HPLC): formation of extraneous unidentified peaks
% NFA (as a % of saxagliptin peak) [4]: 0%
